Measurements taken from patent US7655768B2, “Galactose derivative, drug carrier and medicinal composition” (Nippon Shinyaku Co., Ltd., priority 2004, dated 2010).

Test system: HuH-7 cells (human hepatoma cell line)
Assay: Expression efficiency of luciferase plasmid DNA delivered by carrier compositions in HuH-7 cells
Assay type: cell-based
Conditions: 24 hours after addition of composition, carriers of Examples 9 to 13 with rising content of the Example 2 derivative, compared with carrier of Comparative Example 1, FIG. 1
Description: By adding 50 μL of 10% maltose solution to 1 μg of the plasmid DNA encording luciferase gene, 50 μL of the plasmid solution containing the plasmid at 20 μg/mL was prepared. In addition, by adding 44 μL of 10% maltose solution to 6 μL of the dispersion liquid of the carrier according to Example 9 to 13 or Comparative Example 1, 50 μL of the diluted solution of the carrier at 600 μg/mL was prepared.
50 μL of the above nucleic acid solution was added to 50 μL of the above diluted solution of the carrier, and then mixed gently. Then, the sample was left at room temperature for 15 minutes to prepare 100 μL of the composition solution containing the above plasmid at 10 μg/mL.
HuH-7 cells (human hepatoma cell line) were seeded on a 96-well plate at 1×10^4 cells/well, and were incubated for 18 hours at 37° C. under 5% CO2. Then, 10 μL of the composition containing the carrier according to Example 9 to 13 or Comparative Example 1 prepared above (1) was added per well, and incubation was further continued. After 24 hours from addition of the composition, luciferase activity was measured. Luciferase activity was measured by detecting the bioluminescence with Top Count (manufactured by Packard), using Steady Glo Luciferase Assay System (manufactured by Promega). Meanwhile, a comparative control was a cell given the composition containing the carrier according to Comparative Example 1.

CCCCCCCC/C=C\CCCCCCCC(=O)OC[C@H](COP(=O)(O)OCCOCCOCCOCCOCCNC[C@H](O)[C@@H](O)[C@H](O[C@@H]1O[C@H](CO)[C@H](O)[C@H](O)[C@H]1O)[C@H](O)CO)OC(=O)CCCCCCC/C=C\CCCCCCCC [Example 2, L-α-dioleoylphosphatidyl{14-N-(1-deoxylactito-1-yl)amino-3,6,9,12-tetraoxa}tetradecanol] was tested, and the “expression efficiency of luciferase gene (luciferase activity)” value was “increased as compared with that in the comparative control as a function of concentration of the derivative of the present invention”.
